Results from patent US20050260202A1, “Methods for producing proliferating muscle cells” (The Regents of the University of California, priority 2004, published 2005).
Blank lines part the entries; values can stand above or below the substance they belong to.

Experiments:
[1] = biological target: murine Sca-1 (stem cell antigen-1) (murine) (UniProt P05533); experiment: cell-based or functional assay
C2C12 cells = experiment: Fyn mutant assay: GFP-positive myoblasts to myotubes; type: cell-based, mouse; settings: five days in differentiation medium
Text: This example describes the expression of wild type and mutant Fyn proteins to analyse the role of Fyn in Sca-1-mediated myogenesis. Briefly, a 1615 bp fragment of pCMV-FynDN (Ko et al., J. Biol Chem, 277:46085-46092, 2002), containing the full-length, dominant negative K299M mutant of mouse Fyn, was PCR-amplified using primers 5′-TTATGCGGCC GCATGGGCTGTG TGCAATGTAAGG-3′ (SEQ ID NO:7) and 5′-GCATGCATGC TACAGGTTT TCACCAGGTT GG-3′ (SEQ ID NO:8) and cloned into the NotI/SphI sites of pIRES-hrGFP-1a (Stratagene). The pCMV-FynDN plasmid was kindly provided by Marilyn Resh (Sloan-Kettering Cancer Center). Similarly, a 1.6 kb BamHI fragment of Fyn-Y531F (Maulon et al., Oncogene, 20:1964-1972, 2001), containing the full-length, constitutively active Y531F mutant of mouse Fyn, was cloned into the BamHI site of pIRES-hrGFP-1a (Stratagene). The Fyn-Y531F DNA was generously provided by Patrick Auberger (INSERM). […] Expression of mutants and GFP was determined by immunoblot of whole cell lysates from transfected C2C12 cells with anti-Fyn antibody (Santa Cruz Biotechnology), and immunofluorescence detection of GFP in live cells. […] Data was acquired with a Nikon Microphot-FX fluorescence microscope and Spot imaging software. […] The effect of Fyn mutants on cell fusion was measured as the ratio of GFP-positive mononuclear myoblasts to GFP-positive myotubes (cells with 2 or more nuclei).

C2C12 myoblasts [2] = experiment: Myoblast fusion assay in C2C12 cells; type: cell-based, mouse; settings: C2C12, differentiation conditions, PIPLC 5 U/ml
Text: (§1) Actively growing C2C12, Sol8, and L6 skeletal myoblasts (ATCC) were maintained in DMEM with 10%, 20%, or 10% FBS, respectively. QM7 quail skeletal myoblasts (kindly provided by Charles Ordahl, UCSF) were maintained in M199 medium with 10% tryptose phosphate and 10% FBS. Myoblast differentiation was induced by culture of confluent monolayers in DMEM with 1% FBS for C2C12 and Sol8 cells, 2% horse serum for L6 cells, or M199 medium with 10% tryptase phosphate and 0.5% FBS for QM7 cells. For PIPLC treatment, 5 U/ml of PIPLC (Sigma) was added into the culture medium when cells reached confluence, and with daily media changes. […]
(§2) Cells were plated on cover slips, cultured under conditions described above in Example 1, and labeled with BrdU for 60 min using Labeling and Detection Kit I (Roche) according to the manufacturer's instructions. […] Immunofluorescence signals were acquired with a Nikon Microphot-FX fluorescence microscope and Spot imaging software. Nuclei from low-power (10×) images were analyzed to quantitate BrdU incorporation and myoblast fusion. Each culture stage was analyzed in triplicate, with data representing the mean of 10 high-power fields. Cell proliferation was calculated as percent BrdU-positive nuclei per field. Cell fusion was calculated as average number of DAPI staining nuclei per myotube.

C2C12 myoblasts [3] = experiment: BrdU incorporation (cell proliferation) in C2C12 cells; type: cell-based, mouse; settings: C2C12, differentiation conditions, PIPLC 5 U/ml
Text: as §1, §2

Sol8 murine myoblasts [4] = experiment: Myoblast fusion assay in Sol8 cells; type: cell-based, mouse; settings: Sol8, differentiation conditions, PIPLC 5 U/ml
Text: as §1, §2

Sol8 murine myoblasts [5] = experiment: BrdU incorporation in Sol8 cells; type: cell-based, mouse; settings: Sol8, differentiation conditions, PIPLC 5 U/ml
Text: as §1, §2

L6 rat myoblasts [6] = experiment: Myoblast fusion assay in L6 cells; type: cell-based; settings: L6, differentiation conditions, PIPLC 5 U/ml
Text: as §1, §2

L6 rat myoblasts [7] = experiment: BrdU incorporation in L6 cells; type: cell-based; settings: L6, differentiation conditions, PIPLC 5 U/ml
Text: as §1, §2

QM7 avian myoblasts [8] = experiment: Myoblast fusion assay in QM7 cells; type: cell-based, quail; settings: QM7, differentiation conditions, PIPLC 5 U/ml
Text: as §1, §2

QM7 avian myoblasts [9] = experiment: BrdU incorporation in QM7 cells; type: cell-based, quail; settings: QM7, differentiation conditions, PIPLC 5 U/ml
Text: as §1, §2

Sca-1 = Sca-1 expression by immunoblot and immunostaining; type: cell-based, mouse; settings: C2C12 cells
Description: Immunoblot analysis was performed using previously described methods (Hlaing et al., J Biol Chem, 277:23794-23799, 2002). Briefly, cells were lysed by sonication in lysis buffer (50 mM Tris-HCl, pH 7.5, 150 mM NaCl, 3 mM EDTA, 3 mM EGTA, 1% SDS, 10% glycerol), boiled for 5 min, and centrifuged at 16,000×g for 2 min. Protein concentrations of supernatants were measured by BCA assay (Pierce), and equal amounts of protein (100-200 μg) were separated by SDS-polyacrylamide gel electrophoresis. Immunoblots were analyzed with 5 μg/ml monoclonal antibody against Sca-1 (Pharmingen) or β-actin (Sigma), and 1 μg/ml HRP-conjugated goat-anti mouse IgG (Bio-Rad).
To detect Sca-1, Myf5, MyoD, and myogenin in situ, wild type and stably transfected C2C12 cells were plated on cover slips, grown as described for the indicated lengths of time, and stained with either 2.5 μg/ml monoclonal anti-Sca-1 antibody (clone E13-161.7; Pharmingen) and 4 μg/ml FITC-conjugated goat anti-rat IgG (Pharmingen), or 10 μg/ml rabbit polyclonal anti-Myf5, anti-MyoD, or anti-myogenin antibody (Santa Cruz Biotechnology) and 2 μg/ml FITC-conjugated goat anti-rabbit IgG (Molecular Probes), as previously described (Liu et al., Cell Biochem Biophys, 39:119-131, 2003).

Sequence of UniProt P05533 (P05533 27-112 limits assumed): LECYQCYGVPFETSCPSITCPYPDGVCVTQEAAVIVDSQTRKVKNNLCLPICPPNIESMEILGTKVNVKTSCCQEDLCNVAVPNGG

BrdU positive nuclei (proliferation), E13-161.7 and D7 in combination versus untreated (% BrdU positive nuclei) [1]: 11
nuclei per myotube (myoblast fusion), E13-161.7 and D7 in combination versus untreated (nuclei per myotube) [1]: 14
Substance: monoclonal rat anti-Sca-1 antibody, clone E13-161.7 (Pharmingen)

Substance: constitutively active form of Fyn: Full-length constitutively active Y531F mutant of mouse Fyn, co-expressed with GFP from pIRES-hrGFP-1a
ratio of transfected myoblasts to myotubes (C2C12 cells; wild type C2C12 cells): 4.9+/−1.7

Substance: dominant-negative mutant of Fyn: Full-length dominant negative K299M mutant of mouse Fyn, co-expressed with GFP from pIRES-hrGFP-1a
ratio of transfected myoblasts to myotubes (C2C12 cells; Sca-1 antisense-expressing cells): 2.3+/−0.7

Substance: phosphatidylinositol-specific phospholipase-C [PIPLC]
myoblast fusion (C2C12 myoblasts [2]): 3±1 nuclei/myotube
BrdU incorporation (C2C12 myoblasts [3]): 37±2 % BrdU positive nuclei
myoblast fusion (Sol8 murine myoblasts [4]): 5±1 nuclei/myotube
BrdU incorporation (Sol8 murine myoblasts [5]): 18±2 % BrdU positive nuclei
myoblast fusion (L6 rat myoblasts [6]): 2±1 nuclei/myotube
BrdU incorporation (L6 rat myoblasts [7]): 20±2 % BrdU positive nuclei
myoblast fusion (QM7 avian myoblasts [8]): 1±0.2 nuclei/myotube
BrdU incorporation (QM7 avian myoblasts [9]): 48±5 % BrdU positive nuclei
removal of Sca-1 from cell surface (Sca-1): strips Sca-1 from the surface

BrdU positive nuclei (proliferation), E13-161.7 and D7 in combination versus untreated (% BrdU positive nuclei) [1]: 11
nuclei per myotube (myoblast fusion), E13-161.7 and D7 in combination versus untreated (nuclei per myotube) [1]: 14
Substance: monoclonal anti-Sca-1 antibody, clone D7 (Pharmingen)
